Measured values: US20250382631A1, “PROTAC-CID SYSTEMS FOR USE IN MULTIPLEX GENE REGULATION” (William Marsh Rice University, priority 2022, published 2025)

Columns and labels:
[1] = test system: mutated Cre gene with 2-bp micro-deletion / GFP expression in HEK293T cells; experiment: Inducible prime editing repair of micro-deleted Cre, GFP reporter; assay type: cell-based, human; conditions: 100 nM dTAG-13, FIGS. 3F and 18
Procedure: Fluorescence assay using flow cytometry analysis. Cells were treated with 0.05% Trpsin EDTA (Thermo Fisher Scientific no. 25300054) or TrypLE (Thermo Fisher Scientific no. 12605028) after transfection and centrifuged at 3000 g for 5 min. Supernatant was removed and the cell pellet was resuspended with 200 μL phosphate buffered saline (PBS) without calcium and magnesium (Thermo Fisher Scientific no. 10010023). Cells were transferred into 12×75 mm flow tubes (Global Scientific no. 110410). Cells were analyzed by MA900 flow cytometry (SONY). 405 nm laser (FL6 filter) was used for testing the BFP channel. 488 nm (FL1 filter) was used for testing the EYFP and GFP channel. Automated alignment using Automatic Setup Beads kit (SONY no. LE-B3001) is performed before running samples. In FIGS. 3A, 3B, and 17, experiments were performed under 2% FSC, 17% BSC, 24% FL1. […] Flow cytometry data was processed and analyzed by FlowJo 10. […] The mean intensity of the reporter fluorescent protein (BFP and EYFP) in viable and single cell populations were calculated by FlowJo 10 as the mean of FL6-A and FL1-A. When calculating the fold change of relative fluorescence units (RFU), the relative fluorescence units of EYFP was calculated by dividing the mean of fluorescence intensity of EYFP with the mean of BFP fluorescence intensity for normalization as the following formula: […]

endogenous BRD4 = target: T1, endogenous BRD4 (Mus musculus, UniProt Q9ESU6); experiment: Immunoblot of endogenous BRD4 in mice liver tissue; assay type: in vivo, FVB mice; conditions: 50 mg/kg MZ1 i.p., FIG. 21
T1 construct: Immunoblot analysis of endogenous long isoform BRD4 (BRD4L) after 50 mg/kg MZ1 treatment i.p; from tissue; host or cells: liver of FVB mice (AAV-infected, MZ1-treated)
Source text: Immunoblots and RT-qPCR. Mice liver tissues or culture cells were lysed in RIPA buffer (Abcam no. ab156034) supplemented with phosphatase inhibitor (Thermo Fisher Scientific no. PIA32957) and protease inhibitors (Fishers cientific no. A32965). Lysates were resolved by 10% Tris-glycine SDS-PAGE, transferred to PVDF membrane (Bio-Rad no. 1620177), and blotted with antibodies BRD4 (Abcam, ab128874), GAPDH (Cell Signaling Technology, 2118L), luciferase (ABclonal, requested), Ran (ABclonal, A0976), Hsp90 (Cell Signaling Technology, 4874). Images were acquired using LumiQuant AC600 (Acuronbio Technology Inc), quantification analysis was processed by ImageJ software. Trizol reagent (Sigma no. T9424) was used to extract total RNA from liver. RNAs were purified using RNeasy Mini kit (QIAGEN no. 4106). The quality and concentration of total RNA were checked on NanoDrop™ 2000/2000c Spectrophotometers (Thermo Fisher Scientific no. ND2000LAPTOP). Reverse transcription of total RNA was performed using a Applied Biosystems™ High-Capacity cDNA Reverse Transcription Kit (Thermo Fisher Scientific no. 4368813) and qPCR was conducted with SYBR Green Master Mix (Abclonal no. RK21203) on QuantStudio 6 Real-time PCR system (Thermo Fisher Scientific).
AAV production and Mouse for in vivo delivery. […] FVB mice were purchased from the Jackson Laboratory.

Structure (SMILES) | increase in GFP expression (prime editing repair of micro-deleted Cre) [1] | expression of BRD4 in mice liver tissue (endogenous BRD4)
CC[C@H](C(=O)N1CCCC[C@H]1C(=O)O[C@H](CCc1ccc(OC)c(OC)c1)c1ccccc1OCC(=O)NCCCCCCOc1cccc2c1C(=O)N(C1CCC(=O)NC1=O)C2=O)c1cc(OC)c(OC)c(OC)c1 (some centres unmarked) [dTAG-13] | more than 25 fold | –
Cc1ncsc1-c1ccc(CNC(=O)[C@@H]2C[C@@H](O)CN2C(=O)[C@@H](NC(=O)COCCOCCOCCNC(=O)C[C@@H]2N=C(c3ccc(Cl)cc3)c3c(sc(C)c3C)-n3c(C)nnc32)C(C)(C)C)cc1 [MZ1] | – | did not observe a significant change in the expression of BRD4
